Measured values taken from PubChem BioAssay (NCI).
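Tested at 5 concentrations; 48 h exposure; 96-well plates; endpoints linearly interpolated, else capped at highest concentration. GI50 = concentration required for 50% inhibition of growth. TGI: total growth inhibition.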

Tests used:
Assay in all cases: NCI tumour cell line growth inhibition, 48 h
786-0 renal = test system: 786-0 renal
A498 renal = test system: A498 renal
A549 NSCLC = test system: A549 NSCLC
ACHN renal = test system: ACHN renal
CAKI-1 renal = test system: CAKI-1 renal
CCRF-CEM leukemia = test system: CCRF-CEM leukemia
COLO 205 colon = test system: COLO 205 colon
DU-145 prostate = test system: DU-145 prostate
EKVX NSCLC = test system: EKVX NSCLC
HCC-2998 colon = test system: HCC-2998 colon
HCT-116 colon = test system: HCT-116 colon
HCT-15 colon = test system: HCT-15 colon
HL-60(TB) leukemia = test system: HL-60(TB) leukemia
HOP-62 NSCLC = test system: HOP-62 NSCLC
HOP-92 NSCLC = test system: HOP-92 NSCLC
HS 578T breast = test system: HS 578T breast
HT29 colon = test system: HT29 colon
IGROV1 ovarian = test system: IGROV1 ovarian
K-562 leukemia = test system: K-562 leukemia
KM12 colon = test system: KM12 colon
LOX IMVI melanoma = test system: LOX IMVI melanoma
M14 melanoma = test system: M14 melanoma
MCF7 breast = test system: MCF7 breast
MDA-MB-231 breast = test system: MDA-MB-231 breast
MDA-MB-435 = test system: MDA-MB-435
MDA-N = test system: MDA-N
MOLT-4 leukemia = test system: MOLT-4 leukemia
NCI-H23 lung = test system: NCI-H23 lung
NCI-H460 lung = test system: NCI-H460 lung
NCI-H522 lung = test system: NCI-H522 lung
NCI/ADR-RES ovarian = test system: NCI/ADR-RES ovarian
OVCAR-3 ovarian = test system: OVCAR-3 ovarian
OVCAR-4 ovarian = test system: OVCAR-4 ovarian
OVCAR-5 ovarian = test system: OVCAR-5 ovarian
OVCAR-8 ovarian = test system: OVCAR-8 ovarian
PC-3 prostate = test system: PC-3 prostate
RPMI-8226 leukemia = test system: RPMI-8226 leukemia
RXF 393 renal = test system: RXF 393 renal
SF-268 CNS = test system: SF-268 CNS
SF-295 CNS = test system: SF-295 CNS
SF-539 CNS = test system: SF-539 CNS
SK-MEL-28 melanoma = test system: SK-MEL-28 melanoma
SK-MEL-5 melanoma = test system: SK-MEL-5 melanoma
SK-OV-3 ovarian = test system: SK-OV-3 ovarian
SN12C renal = test system: SN12C renal
SNB-75 CNS = test system: SNB-75 CNS
SR leukemia = test system: SR leukemia
SW-620 colon = test system: SW-620 colon
T-47D breast = test system: T-47D breast
TK-10 renal = test system: TK-10 renal
U251 CNS = test system: U251 CNS
UACC-257 melanoma = test system: UACC-257 melanoma
UACC-62 melanoma = test system: UACC-62 melanoma
UO-31 renal = test system: UO-31 renal
MALME-3M melanoma = test system: MALME-3M melanoma
SK-MEL-2 melanoma = test system: SK-MEL-2 melanoma
SNB-19 CNS = test system: SNB-19 CNS

Structure (SMILES): O=CCOCc1cc2c(cc1Br)OCO2
- TGI (786-0 renal): 36.7 µM
- TGI (A498 renal): > 100 µM
- TGI (A549 NSCLC): > 100 µM
- TGI (ACHN renal): 55.1 µM
- TGI (CAKI-1 renal): 42.7 µM
- TGI (CCRF-CEM leukemia): 47.7 µM
- TGI (COLO 205 colon): > 100 µM
- TGI (DU-145 prostate): > 100 µM
- TGI (EKVX NSCLC): > 100 µM
- TGI (HCC-2998 colon): > 100 µM
- TGI (HCT-116 colon): 45 µM
- TGI (HCT-15 colon): 46.1 µM
- TGI (HL-60(TB) leukemia): 48.8 µM
- TGI (HOP-62 NSCLC): > 100 µM
- TGI (HOP-92 NSCLC): > 100 µM
- TGI (HS 578T breast): 44.7 µM
- TGI (HT29 colon): 38.6 µM
- TGI (IGROV1 ovarian): > 100 µM
- TGI (K-562 leukemia): > 100 µM
- TGI (KM12 colon): > 100 µM
- TGI (LOX IMVI melanoma): 47.1 µM
- TGI (M14 melanoma): 46.7 µM
- TGI (MCF7 breast): 42.9 µM
- TGI (MDA-MB-231 breast): 44.4 µM
- TGI (MDA-MB-435): > 100 µM
- TGI (MDA-N): > 100 µM
- TGI (MOLT-4 leukemia): > 100 µM
- TGI (NCI-H23 lung): 28.7 µM
- TGI (NCI-H460 lung): > 100 µM
- TGI (NCI-H522 lung): 33.3 µM
- TGI (NCI/ADR-RES ovarian): 40.4 µM
- TGI (OVCAR-3 ovarian): 35.7 µM
- TGI (OVCAR-4 ovarian): 45.8 µM
- TGI (OVCAR-5 ovarian): > 100 µM
- TGI (OVCAR-8 ovarian): 52.5 µM
- TGI (PC-3 prostate): 59.6 µM
- TGI (RPMI-8226 leukemia): > 100 µM
- TGI (RXF 393 renal): > 100 µM
- TGI (SF-268 CNS): 47.8 µM
- TGI (SF-295 CNS): > 100 µM
- TGI (SF-539 CNS): 50.2 µM
- TGI (SK-MEL-28 melanoma): > 100 µM
- TGI (SK-MEL-5 melanoma): 36.1 µM
- TGI (SK-OV-3 ovarian): > 100 µM
- TGI (SN12C renal): > 100 µM
- TGI (SNB-75 CNS): > 100 µM
- TGI (SR leukemia): 68.1 µM
- TGI (SW-620 colon): 50.3 µM
- TGI (T-47D breast): 61.6 µM
- TGI (TK-10 renal): > 100 µM
- TGI (U251 CNS): 90.5 µM
- TGI (UACC-257 melanoma): > 100 µM
- TGI (UACC-62 melanoma): > 100 µM
- TGI (UO-31 renal): 42.9 µM

Structure (SMILES): CCCn1c2c(c3ccccc3c1=O)C(=O)c1cc3c(cc1-2)OCO3
- GI50 (786-0 renal): 77.2 µM
- TGI (786-0 renal): > 100 µM
- GI50 (A498 renal): > 100 µM
- TGI (A498 renal): > 100 µM
- GI50 (A549 NSCLC): > 100 µM
- TGI (A549 NSCLC): > 100 µM
- GI50 (ACHN renal): > 100 µM
- TGI (ACHN renal): > 100 µM
- GI50 (CAKI-1 renal): 97.3 µM
- TGI (CAKI-1 renal): > 100 µM
- GI50 (CCRF-CEM leukemia): > 100 µM
- TGI (CCRF-CEM leukemia): > 100 µM
- GI50 (COLO 205 colon): > 100 µM
- TGI (COLO 205 colon): > 100 µM
- GI50 (DU-145 prostate): > 100 µM
- TGI (DU-145 prostate): > 100 µM
- GI50 (EKVX NSCLC): 91.2 µM
- TGI (EKVX NSCLC): > 100 µM
- GI50 (HCC-2998 colon): 16.9 µM
- TGI (HCC-2998 colon): 99.6 µM
- GI50 (HCT-116 colon): 30.5 µM
- TGI (HCT-116 colon): > 100 µM
- GI50 (HCT-15 colon): > 100 µM
- TGI (HCT-15 colon): > 100 µM
- GI50 (HL-60(TB) leukemia): > 100 µM
- TGI (HL-60(TB) leukemia): > 100 µM
- GI50 (HOP-62 NSCLC): > 100 µM
- TGI (HOP-62 NSCLC): > 100 µM
- GI50 (HOP-92 NSCLC): 0.159 µM
- TGI (HOP-92 NSCLC): 0.458 µM
- GI50 (HS 578T breast): > 100 µM
- TGI (HS 578T breast): > 100 µM
- GI50 (HT29 colon): > 100 µM
- TGI (HT29 colon): > 100 µM
- GI50 (IGROV1 ovarian): 44.4 µM
- TGI (IGROV1 ovarian): > 100 µM
- GI50 (KM12 colon): 31.5 µM
- TGI (KM12 colon): > 100 µM
- GI50 (LOX IMVI melanoma): > 100 µM
- TGI (LOX IMVI melanoma): > 100 µM
- GI50 (M14 melanoma): > 100 µM
- TGI (M14 melanoma): > 100 µM
- GI50 (MALME-3M melanoma): > 100 µM
- TGI (MALME-3M melanoma): > 100 µM
- GI50 (MCF7 breast): 9.39 µM
- TGI (MCF7 breast): > 100 µM
- GI50 (MDA-MB-231 breast): > 100 µM
- TGI (MDA-MB-231 breast): > 100 µM
- GI50 (MDA-MB-435): > 100 µM
- TGI (MDA-MB-435): > 100 µM
- GI50 (MDA-N): > 100 µM
- TGI (MDA-N): > 100 µM
- GI50 (NCI-H23 lung): > 100 µM
- TGI (NCI-H23 lung): > 100 µM
- GI50 (NCI-H460 lung): 26.8 µM
- TGI (NCI-H460 lung): > 100 µM
- GI50 (NCI-H522 lung): 60.1 µM
- TGI (NCI-H522 lung): > 100 µM
- GI50 (NCI/ADR-RES ovarian): 76.9 µM
- TGI (NCI/ADR-RES ovarian): > 100 µM
- GI50 (OVCAR-3 ovarian): 21 µM
- TGI (OVCAR-3 ovarian): > 100 µM
- GI50 (OVCAR-4 ovarian): > 100 µM
- TGI (OVCAR-4 ovarian): > 100 µM
- GI50 (OVCAR-5 ovarian): > 100 µM
- TGI (OVCAR-5 ovarian): > 100 µM
- GI50 (OVCAR-8 ovarian): > 100 µM
- TGI (OVCAR-8 ovarian): > 100 µM
- GI50 (PC-3 prostate): 71.1 µM
- TGI (PC-3 prostate): > 100 µM
- GI50 (RXF 393 renal): > 100 µM
- TGI (RXF 393 renal): > 100 µM
- GI50 (SF-268 CNS): > 100 µM
- TGI (SF-268 CNS): > 100 µM
- GI50 (SF-295 CNS): 44.8 µM
- TGI (SF-295 CNS): > 100 µM
- GI50 (SF-539 CNS): > 100 µM
- TGI (SF-539 CNS): > 100 µM
- GI50 (SK-MEL-2 melanoma): > 100 µM
- TGI (SK-MEL-2 melanoma): > 100 µM
- GI50 (SK-MEL-28 melanoma): > 100 µM
- TGI (SK-MEL-28 melanoma): > 100 µM
- GI50 (SK-MEL-5 melanoma): > 100 µM
- TGI (SK-MEL-5 melanoma): > 100 µM
- GI50 (SK-OV-3 ovarian): > 100 µM
- TGI (SK-OV-3 ovarian): > 100 µM
- GI50 (SN12C renal): > 100 µM
- TGI (SN12C renal): > 100 µM
- GI50 (SNB-19 CNS): > 100 µM
- TGI (SNB-19 CNS): > 100 µM
- GI50 (SNB-75 CNS): > 100 µM
- TGI (SNB-75 CNS): > 100 µM
- GI50 (SR leukemia): 6.1 µM
- TGI (SR leukemia): > 100 µM
- GI50 (SW-620 colon): 83.2 µM
- TGI (SW-620 colon): > 100 µM
- GI50 (T-47D breast): > 100 µM
- TGI (T-47D breast): > 100 µM
- GI50 (TK-10 renal): 86.9 µM
- TGI (TK-10 renal): > 100 µM
- GI50 (U251 CNS): > 100 µM
- TGI (U251 CNS): > 100 µM
- GI50 (UACC-257 melanoma): > 100 µM
- TGI (UACC-257 melanoma): > 100 µM
- GI50 (UACC-62 melanoma): > 100 µM
- TGI (UACC-62 melanoma): > 100 µM
- GI50 (UO-31 renal): > 100 µM
- TGI (UO-31 renal): > 100 µM
